Assay results as given in patent US20140148422A1, “TREATMENT OF GLUCOSE INTOLERANCE” (AtheroNova Operations, Inc., priority 2009, published 2014).
“And” between values parts separate entries of the source, which are not always exact repeats. Identical values can stand only once. “Also recorded” adds a separate entry of the source. Like-named read-outs stand apart in the source and are kept apart here.

Tests used:
[1] = system: Fat Metabolism in Mice; experiment: Determination of ketonuria in mice (urine ketone bodies, Ketostix strips); type: in vivo; design: key to Ketone level: —: No detectable levels of Ketone in the urine; Trace amount of Ketone (6 mg/dL) in the urine; Small amount of Ketone (15 mg/dL) in the urine; details: week 23; for Ketone level: urine of individual mice; for Average Ketone levels: urine
Method: In a preliminary in vivo experiment, four groups of mice (each group including three or four mice of same genetic background) were tested for levels of ketone bodies in their urine after consumption of the high fat and/or high cholesterol rodent chow diet supplemented with or without at least on biocompatible emulsifier. In this study, all mice in all groups (all being eight weeks old when this study commenced) were fed with high fat/high cholesterol chow diet (Catalog No. 12079B from Research Diets) for eight weeks. Starting at week 9, the diet of all mice was switched to low fat chow (AIN-76A Rodent Diet from Research Diets). For 15 weeks thereafter, the control mice of group A were fed with pure low fat chow while the mice in treated groups, B, C and D, were fed with low fat chow supplemented with at least one biocompatible emulsifier as follow: Group B mice were fed with low fat chow supplemented with 0.5% Hyodeoxycholic acid (HDCA) and 1.25% D-Limonene (DLM). Group C mice were fed with low fat chow supplemented with 5% DLM. Group D mice were fed with low fat chow supplemented with 1.25% HDCA.
At week 23 of the experiment, urine samples from each mice were taken and analyzed for ketone body levels using Ketostix® stips.

[2] = system: Fat Metabolism In Human; experiment: Ketonuria in an individual taking oral HDCA (weekly Ketostix testing); type: in vivo; details: 250 mg orally three times a day (750 mg/day), 10 weeks, no caloric restriction, one individual
Text: (§1) It is know in the art that when hyodeoxycholic acid (a hydrophilic bile acid) is taken orally, it is absorbed through the gut and reaches the liver, but then a large fraction of it, up to 70%, escapes the entero-hepatic circulation, and enters the systemic circulation. See Salvioli et al., European Journal of Clinical Investigation, Vol. 18(1), pp. 22-28 (February 1988). Therefore, the induction of ketonuria is an indication that HDCA upon becoming bioavailable the systemic circulation is able to induce dissolution of the body fat.
(§2) Considering that about 70% of HDCA escapes the entero-hepatic pathway and enters into the systemic blood circulation, the 750 mg/day dose of HDCA averages to concentration of about 270 μM in the blood of an average adult person weighing 70 kg, as compared to normal levels of bile salts in the blood which are less than 10 μM. Some embodiments described herein are effective to mimic the high levels of bile salts observed as safe in Example 2, and in so doing are effective to result in the treatment of obesity.
An in vivo experiment was performed to assess the effectiveness of HDCA in causing fat catabolism and treating obesity in human. In this experiment, an overweight individual otherwise healthy took 250 mg of HDCA three times a day (750 mg/day) for a period of 10 weeks without caloric restriction.

[3] = Escape of oral HDCA from the entero-hepatic circulation into the systemic circulation; type: in vivo, human; details: 750 mg/day dose, average adult person weighing 70 kg, assuming about 70% enters systemic circulation
Text: as §1, §2

[4] = taken orally, cited from earlier work
[5] = wild-type mice provided dietary HDCA; cited from earlier work
[6] = system: C57BL/6 LDL r-KO knockout mice; details: HDCA fed, relative to mice not provided HDCA; cited from earlier work
[7] = drug compared with placebo; cited from earlier work
[8] = low fat chow + 1.25% HDCA (Group D)
[9] = low fat chow + 5% DLM (Group C)

C[C@H](CCC(=O)O)[C@H]1CC[C@H]2[C@@H]3C[C@H](O)[C@@H]4C[C@H](O)CC[C@]4(C)[C@H]3CC[C@]12C [HDCA, hyodeoxycholic acid]
Ketone level [1, 8]: — and T (Trace amount of Ketone (6 mg/dL) in the urine) and S (Small amount of Ketone (15 mg/dL) in the urine)
Average Ketone levels [1, 8]: 100
Ketonuria / ketotic state [2]: mild ketonuria; also recorded: mild ketotic state
Average concentration in the blood [3]: about 270 μM
Fraction escaping the entero-hepatic circulation and entering the systemic circulation [4]: about 70%
Fraction escaping the entero-hepatic circulation and entering the systemic circulation ([4]; listed as hyodeoxycholic acid): up to 70%
Plasma levels [5]: up to 50 μM
Rate of formation of atherosclerotic plaque [6]: reduced rate of formation of atherosclerotic plaque

CCCCCCCCCCC[C@@H](C[C@@H]1OC(=O)[C@H]1CCCCCC)OC(=O)[C@H](CC(C)C)NC=O [orlistat]
Weight loss [7]: about 5 % of body weight

C=C(C)[C@H]1CC=C(C)CC1 [DLM, D-Limonene]
Ketone level [1, 9]: — and T (Trace amount of Ketone (6 mg/dL) in the urine) (2×) and S (Small amount of Ketone (15 mg/dL) in the urine)
Average Ketone levels [1, 9]: 42

CC(C)(N)Cc1ccccc1 [phentermine]
Weight loss [7]: about 5 % of body weight

CCN[C@@H](C)Cc1cccc(C(F)(F)F)c1 [dexfenfluramine]
Weight loss [7]: about 5 % of body weight

CC(C)CC(N(C)C)C1(c2ccc(Cl)cc2)CCC1 (centres unmarked) [sibutramine]
Weight loss [7]: about 5 % of body weight
